Assay results as given in US9617249B2, “Benzoheterocyclic anti-bacterial agents” (UNIVERSITY OF NOTRE DAME DU LAC, priority 2008, dated 2017).
Converted amounts (≈) assume the structure as drawn.

What was measured:
Assay type in all cases: cell-based
[1] = tested on: Gram-positive clinical isolate strains; test: Potency and selectivity against panel of Gram-positive clinical isolate strains; conditions: Ciprofloxacin standard (FIG. 9)
Text: (§1) FIG. 9 illustrates the potency and selectivity of ND-7901 against a panel of Gram-positive clinical isolate strains compared to a Ciprofloxacin standard in micrograms per milliliter. […] FIG. 10 illustrates the potency and selectivity of ND-7901 against a panel of Gram-negative clinical isolate strains compared to a Ciprofloxacin standard in micrograms per milliliter.

S. aureus strains [2] = test: Mutational analysis by growth without selection and recovery on drug plates; conditions: overnight growth with no selection, drug plates at 2-4 times the MIC (FIG. 13)
Text: FIG. 13 illustrates a mutational analysis of […] by growth of S. aureus strains overnight with no selection and recovery of resistant colonies on drug plates at 2-4 times the MIC value.

Gram-positive strains = test: MIC and MBC determinations against Gram-positive strains; conditions: most Gram-positive isolates (FIG. 11)
Experimental: FIG. 11 illustrates the minimum inhibitory concentration (MIC) and the minimum bactericidal concentration (MBC) determinations of ND-7901 to various Gram-positive strains. A series of broths were mixed with solutions of diluted drug an inoculum was applied. After incubation, the MIC was determined as the first concentration in which the growth of the organism has been inhibited. In contrast, the MBC was measured by inoculating the series of broths used for the MIC determination onto drug-free medium. The MBC is the first dilution at which growth is not observed. ND-7901 is bactericidal against most Gram-positive isolates.

[3] = tested on: Gram-negative clinical isolate strains; test: Potency and selectivity against panel of Gram-negative clinical isolate strains; conditions: Ciprofloxacin standard (FIG. 10)
Text: as §1

[4] = tested on: methicillin-sensitive S. aureus (MSSA), ATCC 29213; test: Time-kill assay; conditions: MSSA ATCC 29213, drug at various concentrations, Vancomycin as control (FIG. 12)
S. aureus strains [5] = test: Mutational analysis by serial transfer experiments; conditions: 0.5-2 times the MIC, after 8 passages (FIG. 14)
Experimental: FIG. 14 illustrates the mutational analysis of ND-7901 by serial transfer experiments. As such, the S. aureus strains were grown with ND-7901 (0.5-2 times the MIC) added and passed serially until resistance was found.

[6] = tested on: Vancomycin-Resistant Enterococcus (VRE); test: MIC against VRE
Text: (§2) In embodiments, various molecules as described herein have surprising activity against MRSA. […] While this particular molecule has been tested previously, the present application is the first disclosure of this compound having activity against multi-drug resistant “super bug” strains. In addition, in accordance with an embodiment described herein, this compound and analogs thereof may be synthesized in high yields in just a single step. Further embodiments herein provide analogs of the afore-mentioned compounds and methods of making and using such compounds.
(§3) In accordance with an embodiment, in order to first broadly screen these compounds, an agar diffusion assay was employed to determine whether these compounds have any activity against a diverse array of organisms which include MRSA and VRE. […] FIG. 4 illustrates selectivity and potency of various benzimidazoles, benzthiazoles, and benzoxazoles against a panel of microorganisms including gram-positive bacteria, gram-negative bacteria, fungi, yeast, and mycobacteria. The minimum inhibition concentration at 90% is shown in micromolar concentration. […] Therefore many of the compounds had their MICs determined which reflected many of the findings of the diffusion assay. FIG. 5 illustrates the chemical structure, molecular weight, and chemical formula of most of the compounds of FIG. 4.

[7] = tested on: Methicillin-resistant Staphylococcus aureus (MRSA); test: MIC against MRSA
Text: as §2, §3

Compound | activity against Gram-positive isolates [1] | spontaneous resistant mutants recovered (S. aureus strains [2]) | bactericidal character (MBC versus MIC) (Gram-positive strains) | activity against Gram-negative isolates [3] | kinetics of bacteria death (time-kill) [4] | level of resistance after serial passage (S. aureus strains [5]) | MIC [6] [µM] | MIC [7] [µM]
O=[N+]([O-])c1ccc(-c2nc3cccc(O)c3[nH]2)o1 [ND-7901] | good activity | no spontaneous mutants were recovered | bactericidal | limited activity | rapid kinetics of bacteria death | very low level of resistance |  | 
O=[N+]([O-])c1ccc(-c2nc3ccccc3[nH]2)o1 [nitrofuran benzimidazole] |  |  |  |  |  |  | 16 (≈ 3.67 µg/mL) | 8 (≈ 1.83 µg/mL)
